Test results as given in the supplement of paper PMC11061612.

How the values were obtained:
AZD2811 = compound: CCN(CCO)CCCOc1ccc2c(Nc3cc(CC(=O)Nc4cccc(F)c4)[nH]n3)ncnc2c1 [AZD2811]; details: max 1 µM
Procedure, shortened: (§1)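 Viability was measured with CellTiter-Glo 2.0 luminescence after 72 hours of dosing at a final DMSO of typically 0.2%, and scaled between blank-well and DMSO-well means. Beforehand, cancer cell lines sat 24 hours at 37°C and 5% CO2 in 1536-well plates in 7.5 μl DMEM/F12 or RPMI with 10% FBS. A non-linear mixed effects model fitted two-parameter logistic curves to the dose responses. The single-agent IC50 comes from these fits.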

Palbociclib = compound: CC(=O)c1c(C)c2cnc(Nc3ccc(N4CCNCC4)cn3)nc2n(C2CCCC2)c1=O [Palbociclib]; details: max 10 µM
Procedure, shortened: as §1

Crizotinib = compound: C[C@@H](Oc1cc(-c2cnn(C3CCNCC3)c2)cnc1N)c1c(Cl)ccc(F)c1Cl [Crizotinib]; details: max 10 µM
Procedure, shortened: as §1

Gefitinib = compound: COc1cc2ncnc(Nc3ccc(F)c(Cl)c3)c2cc1OCCCN1CCOCC1 [Gefitinib]; details: max 10 µM
Procedure, shortened: as §1

Savolitinib = compound: C[C@@H](c1ccc2nccn2c1)n1nnc2ncc(-c3cnn(C)c3)nc21 [Savolitinib]; details: max 1 µM
Procedure, shortened: as §1

Venetoclax = compound: CC1(C)CCC(CN2CCN(c3ccc(C(=O)NS(=O)(=O)c4ccc(NCC5CCOCC5)c([N+](=O)[O-])c4)c(Oc4cnc5[nH]ccc5c4)c3)CC2)=C(c2ccc(Cl)cc2)C1 [Venetoclax]; details: max 1 µM
Procedure, shortened: as §1

Paclitaxel = compound: CC(=O)O[C@H]1C(=O)[C@@]2(C)[C@H]([C@H](OC(=O)c3ccccc3)[C@]3(O)C[C@H](OC(=O)[C@H](O)[C@@H](NC(=O)c4ccccc4)c4ccccc4)C(C)=C1C3(C)C)[C@]1(OC(C)=O)CO[C@@H]1C[C@@H]2O [Paclitaxel]; details: max 3 µM
Procedure, shortened: as §1

AZD1775 = compound: C=CCn1c(=O)c2cnc(Nc3ccc(N4CCN(C)CC4)cc3)nc2n1-c1cccc(C(C)(C)O)n1 [AZD1775]; details: max 3 µM
Procedure, shortened: as §1

AZD1390 = compound: CC(C)n1c(=O)n(C)c2cnc3cc(F)c(-c4ccc(OCCCN5CCCCC5)nc4)cc3c21 [AZD1390]; details: max 0.3 µM
Procedure, shortened: as §1

AZD6738 = compound: C[C@@H]1COCCN1C2=NC(=NC(=C2)C3(CC3)[S@](=N)(=O)C)C4=C5C=CNC5=NC=C4 [AZD6738]; details: max 10 µM
Procedure, shortened: as §1

Taselisib = compound: Cc1nc(-c2cn3c(n2)-c2ccc(-c4cnn(C(C)(C)C(N)=O)c4)cc2OCC3)n(C(C)C)n1 [Taselisib]; details: max 10 µM
Procedure, shortened: as §1

AZD5991 = compound: Cc1c2c(nn1C)CSCc1cc(n(C)n1)CSc1cc(c3ccccc3c1)OCCCc1c(C(=O)O)n(C)c3c-2c(Cl)ccc13 [AZD5991]; details: max 1 µM
Procedure, shortened: as §1

AZD7648 = compound: Cc1cc2ncnn2cc1Nc1ncc2c(n1)n(C1CCOCC1)c(=O)n2C [AZD7648]; details: max 10 µM
Procedure, shortened: as §1

SN-38 = compound: CCc1c2c(nc3ccc(O)cc13)-c1cc3c(c(=O)n1C2)COC(=O)[C@]3(O)CC [SN-38]; details: max 0.3 µM
Procedure, shortened: as §1

MK-2206 = compound: NC1(c2ccc(-c3nc4ccn5c(=O)[nH]nc5c4cc3-c3ccccc3)cc2)CCC1 [MK-2206]; details: max 10 µM
Procedure, shortened: as §1

Olaparib = compound: O=C(c1cc(Cc2n[nH]c(=O)c3ccccc23)ccc1F)N1CCN(C(=O)C2CC2)CC1 [Olaparib]; details: max 10 µM
Procedure, shortened: as §1

Gemcitabine = compound: Nc1ccn([C@@H]2O[C@H](CO)[C@@H](O)C2(F)F)c(=O)n1 [Gemcitabine]; details: max 0.3 µM
Procedure, shortened: as §1

Trametinib = compound: CC(=O)Nc1cccc(-n2c(=O)n(C3CC3)c(=O)c3c(Nc4ccc(I)cc4F)n(C)c(=O)c(C)c32)c1 [Trametinib]; details: max 1 µM
Procedure, shortened: as §1

AZD4320 = compound: CN(CC[C@H](CSC1=CC=CC=C1)NC2=C(C=C(C=C2)S(=O)(=O)NC(=O)C3=CC=C(C=C3)N4CCC(CC4)[C@H](C5=CC=CC=C5C6=CC=C(C=C6)Cl)O)S(=O)(=O)C(F)(F)F)CCO [AZD4320]; details: max 1 µM
Procedure, shortened: as §1

Prexasertib = compound: COc1cccc(OCCCN)c1-c1cc(Nc2cnc(C#N)cn2)n[nH]1 [Prexasertib]; details: max 1 µM
Procedure, shortened: as §1

Selumetinib = compound: Cn1cnc2c(F)c(Nc3ccc(Br)cc3Cl)c(C(=O)NOCCO)cc21 [Selumetinib]; details: max 10 µM
Procedure, shortened: as §1

[1] = compound: O=C(Nc1ccc2[nH]nc(-c3ccncc3)c2c1)[C@@H]1CCN(CC(=O)N2CCN(c3ccc(-c4ncccn4)cc3)CC2)C1; details: max 5 µM
Procedure, shortened: as §1

Lapatinib = compound: CS(=O)(=O)CCNCc1ccc(-c2ccc3ncnc(Nc4ccc(OCc5cccc(F)c5)c(Cl)c4)c3c2)o1 [Lapatinib]; details: max 10 µM
Procedure, shortened: as §1

Alisertib = compound: COc1cc(Nc2ncc3c(n2)-c2ccc(Cl)cc2C(c2c(F)cccc2OC)=NC3)ccc1C(=O)O [Alisertib]; details: max 10 µM
Procedure, shortened: as §1

AZD0156 = compound: CN(C)CCCOc1ccc(-c2ccc3ncc4c(c3c2)n(C2CCOCC2)c(=O)n4C)cn1 [AZD0156]; details: max 3 µM
Procedure, shortened: as §1

AZD5363 = compound: C1CN(CCC1(C(=O)N[C@@H](CCO)C2=CC=C(C=C2)Cl)N)C3=NC=NC4=C3C=CN4 [AZD5363]; details: max 10 µM
Procedure, shortened: as §1

AZD5153 = compound: COc1nnc2ccc(N3CCC(c4ccc(OCCN5CCN(C)C(=O)[C@H]5C)cc4)CC3)nn12 [AZD5153]; details: max 1 µM
Procedure, shortened: as §1

Carboplatin = compound: C1CC(C1)(C(=O)[O-])C(=O)[O-].N.N.[Pt+2] [Carboplatin]; details: max 10 µM
Procedure, shortened: as §1

AZD8186 = compound: C[C@@H](Nc1cc(F)cc(F)c1)c1cc(C(=O)N(C)C)cc2c(=O)cc(N3CCOCC3)oc12 [AZD8186]; details: max 10 µM
Procedure, shortened: as §1

Etoposide = compound: COc1cc([C@@H]2c3cc4c(cc3[C@@H](O[C@@H]3O[C@@H]5CO[C@@H](C)O[C@H]5[C@H](O)[C@H]3O)[C@H]3COC(=O)[C@H]23)OCO4)cc(OC)c1O [Etoposide]; details: max 10 µM
Procedure, shortened: as §1

Doxorubicin = compound: COc1cccc2c1C(=O)c1c(O)c3c(c(O)c1C2=O)C[C@@](O)(C(=O)CO)C[C@@H]3O[C@H]1C[C@H](N)[C@H](O)[C@H](C)O1 [Doxorubicin]; details: max 1 µM
Procedure, shortened: as §1

SRA737 = compound: N#Cc1cnc(Nc2cc(NC[C@H]3CNCCO3)c(C(F)(F)F)cn2)cn1 [SRA737]; details: max 10 µM
Procedure, shortened: as §1

SG3199 = compound: CC1=CN2[C@@H](C1)C=NC3=CC(=C(C=C3C2=O)OC)OCCCCCOC4=C(C=C5C(=C4)N=C[C@@H]6CC(=CN6C5=O)C)OC [SG3199]; details: max 0.001 µM
Procedure, shortened: as §1

Dasatinib = compound: CC1=C(C(=CC=C1)Cl)NC(=O)C2=CN=C(S2)NC3=CC(=NC(=N3)C)N4CCN(CC4)CCO [Dasatinib]; details: max 2 µM
Procedure, shortened: as §1

5-Fluorouracil = compound: O=c1[nH]cc(F)c(=O)[nH]1 [5-Fluorouracil]; details: max 20 µM
Procedure, shortened: as §1

| Cell Line | IC50, cell viability 72 h (AZD2811) [nM] | IC50, cell viability 72 h (Palbociclib) [µM] | IC50, cell viability 72 h (Crizotinib) [µM] | IC50, cell viability 72 h (Gefitinib) [µM] | IC50, cell viability 72 h (Savolitinib) [nM] | IC50, cell viability 72 h (Venetoclax) [nM] | IC50, cell viability 72 h (Paclitaxel) [nM] | IC50, cell viability 72 h (AZD1775) [nM] | IC50, cell viability 72 h (AZD1390) [nM] | IC50, cell viability 72 h (AZD6738) [µM] | IC50, cell viability 72 h (Taselisib) [µM] | IC50, cell viability 72 h (AZD5991) [nM] | IC50, cell viability 72 h (AZD7648) [µM] | IC50, cell viability 72 h (SN-38) [nM] | IC50, cell viability 72 h (MK-2206) [µM] | IC50, cell viability 72 h (Olaparib) [µM] | IC50, cell viability 72 h (Gemcitabine) [nM] | IC50, cell viability 72 h (Trametinib) [nM] | IC50, cell viability 72 h (AZD4320) [nM] | IC50, cell viability 72 h (Prexasertib) [nM] | IC50, cell viability 72 h (Selumetinib) [µM] | IC50, cell viability 72 h [1] [nM] | IC50, cell viability 72 h (Lapatinib) [µM] | IC50, cell viability 72 h (Alisertib) [µM] | IC50, cell viability 72 h (AZD0156) [nM] | IC50, cell viability 72 h (AZD5363) [µM] | IC50, cell viability 72 h (AZD5153) [nM] | IC50, cell viability 72 h (Carboplatin) [µM] | IC50, cell viability 72 h (AZD8186) [µM] | IC50, cell viability 72 h (Etoposide) [µM] | IC50, cell viability 72 h (Doxorubicin) [nM] | IC50, cell viability 72 h (SRA737) [µM] | IC50, cell viability 72 h (SG3199) [nM] | IC50, cell viability 72 h (Dasatinib) [nM] | IC50, cell viability 72 h (5-Fluorouracil) [µM] |
| --- | --- | --- | --- | --- | --- | --- | --- | --- | --- | --- | --- | --- | --- | --- | --- | --- | --- | --- | --- | --- | --- | --- | --- | --- | --- | --- | --- | --- | --- | --- | --- | --- | --- | --- | --- |
| ECC10 (Gastric Carcinoma) | 25.2 | > 10 | 4.92 | > 10 | > 1000 | 230 | 10.9 | 1130 | > 300 | > 10 | > 10 | 713 | > 10 | 7.73 | > 10 | > 10 | 50 | 237 | 21.8 | 324 | > 10 | 375 | 6.71 | 0.2 | > 3000 | > 10 | 139 | > 10 | > 10 | 1.86 | 131 | > 10 | > 1 | > 2000 | > 20 |
| NCI-H64 (Small Cell Lung Carcinoma) | 597 | > 10 | 5.17 | > 10 | > 1000 | > 1000 | 527 | 236 | > 300 | 3.17 | > 10 | > 1000 | > 10 | > 300 | > 10 | > 10 | > 300 | > 1000 | 230 | 19.6 | > 10 | > 5000 | > 10 | 4.9 | > 3000 | > 10 | > 1000 | > 10 | > 10 | > 10 | > 1000 | 3.84 | > 1 | > 2000 | > 20 |
| IGR-37 (Melanoma) | > 1000 | > 10 | > 10 | > 10 | > 1000 | > 1000 | 86.5 | 846 | > 300 | 5.36 | 4.36 | > 1000 | > 10 | 26.2 | > 10 | > 10 | 45.9 | 3.42 | > 1000 | 12.9 | 0.339 | 361 | > 10 | > 10 | > 3000 | > 10 | 846 | > 10 | > 10 | > 10 | 746 | 3.48 | > 1 | > 2000 | > 20 |
| KARPAS-422 (B-Cell Non-Hodgkin's Lymphoma) | > 1000 | 3.05 | > 10 | > 10 | > 1000 | 644 | 957 | 768 | > 300 | 9.32 | 4.63 | 206 | > 10 | 17 | 1.07 | > 10 | 92.2 | > 1000 | 230 | 17.6 | > 10 | > 5000 | > 10 | > 10 | > 3000 | 3.56 | 144 | > 10 | 0.644 | 3.44 | 634 | > 10 | > 1 | 1510 | > 20 |
| TT (Thyroid Gland Carcinoma) | > 1000 | > 10 | > 10 | > 10 | > 1000 | > 1000 | > 3000 | > 3000 | > 300 | > 10 | > 10 | > 1000 | > 10 | 68.8 | > 10 | > 10 | > 300 | > 1000 | > 1000 | 249 | > 10 | > 5000 | > 10 | > 10 | > 3000 | > 10 | 808 | > 10 | > 10 | > 10 | > 1000 | > 10 | > 1 | > 2000 | > 20 |
